Laboratory results: article PMC9574867, “Discovery and Characterization of Synthesized and FDA-Approved Inhibitors of Clostridial and Bacillary Collagenases” (Journal of Medicinal Chemistry, 2022)
In brackets after ≈: the same amount, converted by molar mass. Entries after “also recorded” stand apart in the source; their conditions may differ.

Experiments:
[1] = target: T1, HDAC-8 (Homo sapiens, UniProt Q9BY41); test: Human off-target inhibition, HDAC-8; type: biochemical
T1 sequence (Q9BY41 1-377): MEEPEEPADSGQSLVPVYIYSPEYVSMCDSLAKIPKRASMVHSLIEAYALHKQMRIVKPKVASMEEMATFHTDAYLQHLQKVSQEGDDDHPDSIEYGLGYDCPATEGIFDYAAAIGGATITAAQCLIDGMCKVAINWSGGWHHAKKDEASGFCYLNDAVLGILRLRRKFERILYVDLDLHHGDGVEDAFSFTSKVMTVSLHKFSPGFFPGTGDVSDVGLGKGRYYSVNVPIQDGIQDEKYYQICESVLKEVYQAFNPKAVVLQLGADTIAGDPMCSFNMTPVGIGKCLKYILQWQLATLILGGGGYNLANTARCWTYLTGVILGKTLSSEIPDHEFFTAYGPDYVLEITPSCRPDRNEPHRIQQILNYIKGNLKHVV
Experimental: (§1) To assess the selectivity of the compounds over human MMPs and on other bacterial collagenases, selected compounds were tested against ColG-CU and ColH-PD from C. histolyticum and ColA-CU from B. cereus strain ATCC14579. In addition, the compounds were tested on catalytic domains of three human MMPs, which are characterized by different depths of the S1′ binding pocket (MMP-1 (shallow), −2 (intermediate), and −3 (deep)). They were also tested against other important human off-targets, which are involved in gene expression and the processing of TNF-α; these include HDAC-3, -8, TACE (ADAM-17),[33],[34] and COX-1.

[2] = test system: MDCK II cells infected with B. cereus AH187; type: cell-based, canine
[3] = in vitro; settings: human, HepG2 cells (hepatocellular carcinoma)
[4] = test system: B. cereus collagenases released in the NHDF infection model; type: cell-based, B. cereus AH187
[5] = target: T2, MMP-1 (Homo sapiens, UniProt P03956); test: MMP inhibition assay, MMP-1; type: biochemical
T2 construct: catalytic domains of three human MMPs; purchased Sigma-Aldrich
T2 sequence (P03956 98-276 limits assumed): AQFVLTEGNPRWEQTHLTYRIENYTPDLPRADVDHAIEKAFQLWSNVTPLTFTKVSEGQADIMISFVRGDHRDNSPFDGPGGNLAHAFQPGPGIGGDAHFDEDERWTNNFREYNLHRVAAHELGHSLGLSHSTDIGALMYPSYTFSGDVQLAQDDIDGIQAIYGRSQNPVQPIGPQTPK
Experimental: as §1
(§2) The MMP inhibition assay (Sigma-Aldrich, Saint Louise, MO) was performed as previously reported and in accordance with the manufacturer’s instructions. The fluorescence signals were measured in a CLARIOstar plate reader (BMG LABTECH, Ortenberg, Germany) at a concentration of 100 μM.

[6] = target: T3, ColG-CU (Hathewaya histolytica, UniProt Q9X721); type: biochemical, C. histolyticum; settings: rapid dilution
[7] = target: TACE (ADAM-17) (Homo sapiens, UniProt P78536); test: Human off-target inhibition, TACE; type: biochemical
Experimental: as §1

[8] = target: T4, ColA-CU (Bacillus cereus, UniProt Q81BJ6); test: biochemical; type: biochemical, B. cereus strain ATCC14579; settings: for inhibition at 100 µM: read-out: Percent inhibition of ColA-CU
[9] = target: COX-1 (Homo sapiens, UniProt P23219); test: Human off-target inhibition, COX-1; type: biochemical
Experimental: as §1

[10] = test system: B. cereus AH187 infection; type: in vivo, Galleria mellonella
[11] = target: T5, ColH-PD (Hathewaya histolytica, UniProt Q46085); type: biochemical, C. histolyticum
[12] = target: T3, ColG-CU; test: biochemical; type: biochemical, C. histolyticum; settings: for inhibition at 100 µM: read-out: Percent inhibition of ColG-CU
[13] = in vitro; settings: human, NHDF cells (normal human dermal fibroblasts)
[14] = test system: NHDF cells infected with B. cereus; test: NHDF infection model, cell morphology/attachment and fibrillar collagen (picrosirius red); type: cell-based, human; settings: B. cereus infection, 5 h
[15] = target: T4, ColA-CU; type: biochemical, B. cereus; settings: rapid dilution
[16] = in vitro; settings: dog, MDCK II cells (Madin–Darby canine kidney II)
[17] = target: HDAC-3 (Homo sapiens, UniProt O15379); test: Human off-target inhibition, HDAC-3; type: biochemical
Experimental: as §1

[18] = in vitro; settings: human, HEK293 cells (embryonal kidney)
[19] = target: ColQ1-FL (Bacillus cereus, UniProt B9J3S4); type: biochemical; settings: SDS-PAGE
[20] = target: T6, MMP-3 (Homo sapiens, UniProt P08254); test: MMP inhibition assay, MMP-3; type: biochemical
T6 construct: catalytic domains of three human MMPs; purchased Sigma-Aldrich
Experimental: as §1, §2

[21] = test system: B. cereus AH187; test: B. cereus growth inhibition assay; type: cell-based; settings: Bacillus cereus, AH187; BHI medium, 37 °C, 48 h, 200–3 μM; read-out: MIC50 (µM) AH187
[22] = target: T7, MMP-2 (Homo sapiens, UniProt P08253); test: MMP inhibition assay, MMP-2; type: biochemical
T7 construct: catalytic domains of three human MMPs; purchased Sigma-Aldrich
Experimental: as §1, §2

[23] = target: T5, ColH-PD; test: biochemical; type: biochemical, C. histolyticum; settings: for inhibition at 100 µM: read-out: Percent inhibition of ColH-PD
[24] = target: T8, ColQ1-CU (Bacillus cereus, UniProt B9J3S4); test: biochemical; design: species or system B. cereus strain Q1
[25] = target: T8, ColQ1-CU; type: biochemical, B. cereus; settings: for Reversibility of inhibition, ColQ1-CU: rapid dilution
[26] = test system: ColH; settings: 100 μM, Figure 1b; cited from earlier work
[27] = Stability of 27 with LC-MS in DMEM medium; type: physicochemical; settings: 200 μM in DMEM, 37 °C, 5 h, 5% CO2, LC-MS
Experimental: We also examined the hydroxamate compounds 27, 28, 29, 31, 32, and 33. […] Intrigued by the results of the hydroxamate compounds, we investigated their stability with LC-MS in the conditions of the NHDF infection model to obtain a potential explanation for the observed findings. We used 27 as a representative example for this compound class.
After the incubation, 2 μL of the compound was transferred to LC-MS vials containing 200 μL of acetonitrile and LC-MS spectra were measured. Three controls were included: (i) 27 in DMEO, (ii) 27 in DMEM without incubation, and (iii) DMEM medium.

[28] = target: MMP-8; design: method as in PMID 22529049, PMID 12217351, PMID 12217351; settings: known inhibitors, Figure 1a; cited from earlier work

T3 sequence (Q9X721 111-786): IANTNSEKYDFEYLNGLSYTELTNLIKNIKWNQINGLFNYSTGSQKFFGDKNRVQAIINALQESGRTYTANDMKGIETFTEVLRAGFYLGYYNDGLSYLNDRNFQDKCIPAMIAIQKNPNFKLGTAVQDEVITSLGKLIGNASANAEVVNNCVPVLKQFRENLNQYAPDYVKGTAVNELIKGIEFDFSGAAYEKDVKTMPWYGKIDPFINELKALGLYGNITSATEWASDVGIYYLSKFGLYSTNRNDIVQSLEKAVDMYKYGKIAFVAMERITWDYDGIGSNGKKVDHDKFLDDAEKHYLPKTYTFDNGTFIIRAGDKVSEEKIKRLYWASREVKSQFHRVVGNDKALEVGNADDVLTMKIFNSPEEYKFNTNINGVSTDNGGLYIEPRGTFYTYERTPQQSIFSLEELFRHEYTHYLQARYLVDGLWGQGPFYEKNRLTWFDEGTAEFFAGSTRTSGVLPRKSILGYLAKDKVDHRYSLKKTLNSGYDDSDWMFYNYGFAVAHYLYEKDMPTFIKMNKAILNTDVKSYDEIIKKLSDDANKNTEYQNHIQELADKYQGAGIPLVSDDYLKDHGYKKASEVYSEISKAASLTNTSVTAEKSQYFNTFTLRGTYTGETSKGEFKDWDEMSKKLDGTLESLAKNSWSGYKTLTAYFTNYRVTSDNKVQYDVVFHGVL
T4 sequence (Q81BJ6 93-764): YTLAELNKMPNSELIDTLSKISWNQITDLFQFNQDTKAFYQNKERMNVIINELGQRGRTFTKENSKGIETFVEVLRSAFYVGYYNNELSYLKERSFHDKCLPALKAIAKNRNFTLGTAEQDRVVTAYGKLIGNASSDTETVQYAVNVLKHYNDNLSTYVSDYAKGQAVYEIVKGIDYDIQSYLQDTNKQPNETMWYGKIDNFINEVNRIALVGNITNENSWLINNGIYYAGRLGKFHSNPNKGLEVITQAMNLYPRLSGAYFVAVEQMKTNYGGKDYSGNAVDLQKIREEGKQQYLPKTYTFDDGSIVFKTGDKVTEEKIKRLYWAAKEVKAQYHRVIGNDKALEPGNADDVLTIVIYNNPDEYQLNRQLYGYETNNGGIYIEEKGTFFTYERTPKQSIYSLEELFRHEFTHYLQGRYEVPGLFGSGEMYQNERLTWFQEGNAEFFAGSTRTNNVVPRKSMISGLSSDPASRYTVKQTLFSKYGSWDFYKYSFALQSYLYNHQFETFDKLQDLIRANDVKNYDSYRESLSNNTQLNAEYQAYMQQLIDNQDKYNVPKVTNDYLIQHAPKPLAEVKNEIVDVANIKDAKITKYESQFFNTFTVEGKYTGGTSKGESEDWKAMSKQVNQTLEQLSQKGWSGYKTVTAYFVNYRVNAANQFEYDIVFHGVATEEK
T5 sequence (Q46085 331-721 limits assumed): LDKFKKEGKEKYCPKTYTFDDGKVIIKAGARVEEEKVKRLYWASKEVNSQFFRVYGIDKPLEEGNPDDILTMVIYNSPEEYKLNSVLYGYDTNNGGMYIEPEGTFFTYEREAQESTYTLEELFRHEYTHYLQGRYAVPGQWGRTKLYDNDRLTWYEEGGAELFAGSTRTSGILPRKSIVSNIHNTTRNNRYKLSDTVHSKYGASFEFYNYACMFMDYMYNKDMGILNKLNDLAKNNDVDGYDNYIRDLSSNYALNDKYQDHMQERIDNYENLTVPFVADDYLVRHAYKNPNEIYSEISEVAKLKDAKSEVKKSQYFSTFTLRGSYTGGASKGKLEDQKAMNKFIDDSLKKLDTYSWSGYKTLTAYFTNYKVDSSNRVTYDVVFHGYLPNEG
T8 sequence (B9J3S4 94-765 limits assumed): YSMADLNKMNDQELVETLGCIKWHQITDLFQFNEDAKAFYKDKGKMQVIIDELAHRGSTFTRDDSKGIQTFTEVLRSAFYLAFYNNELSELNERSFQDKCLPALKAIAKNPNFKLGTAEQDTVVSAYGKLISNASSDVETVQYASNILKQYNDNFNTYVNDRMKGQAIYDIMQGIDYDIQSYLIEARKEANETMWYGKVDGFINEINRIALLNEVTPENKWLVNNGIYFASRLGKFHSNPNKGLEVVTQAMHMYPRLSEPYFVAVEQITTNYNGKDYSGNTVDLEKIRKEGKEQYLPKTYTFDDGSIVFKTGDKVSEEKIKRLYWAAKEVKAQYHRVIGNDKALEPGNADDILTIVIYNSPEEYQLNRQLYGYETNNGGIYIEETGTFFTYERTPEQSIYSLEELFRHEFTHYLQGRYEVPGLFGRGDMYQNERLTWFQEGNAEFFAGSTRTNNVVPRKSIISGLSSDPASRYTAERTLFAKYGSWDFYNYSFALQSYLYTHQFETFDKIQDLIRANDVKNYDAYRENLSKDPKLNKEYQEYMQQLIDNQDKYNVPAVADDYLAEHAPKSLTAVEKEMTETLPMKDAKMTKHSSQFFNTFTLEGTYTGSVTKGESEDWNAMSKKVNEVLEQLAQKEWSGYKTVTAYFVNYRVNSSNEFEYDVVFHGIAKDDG
T7 sequence (P08253 110-444 limits assumed): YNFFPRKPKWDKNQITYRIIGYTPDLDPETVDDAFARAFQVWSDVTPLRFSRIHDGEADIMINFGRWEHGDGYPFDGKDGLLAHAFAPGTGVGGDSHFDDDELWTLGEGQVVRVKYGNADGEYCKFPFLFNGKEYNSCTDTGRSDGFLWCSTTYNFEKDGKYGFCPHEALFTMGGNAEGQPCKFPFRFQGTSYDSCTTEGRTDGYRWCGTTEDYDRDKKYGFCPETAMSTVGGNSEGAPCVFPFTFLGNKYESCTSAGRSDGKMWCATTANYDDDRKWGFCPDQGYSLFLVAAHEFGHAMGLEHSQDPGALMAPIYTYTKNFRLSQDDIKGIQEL
Sequence of HDAC-3 (O15379 whole entry): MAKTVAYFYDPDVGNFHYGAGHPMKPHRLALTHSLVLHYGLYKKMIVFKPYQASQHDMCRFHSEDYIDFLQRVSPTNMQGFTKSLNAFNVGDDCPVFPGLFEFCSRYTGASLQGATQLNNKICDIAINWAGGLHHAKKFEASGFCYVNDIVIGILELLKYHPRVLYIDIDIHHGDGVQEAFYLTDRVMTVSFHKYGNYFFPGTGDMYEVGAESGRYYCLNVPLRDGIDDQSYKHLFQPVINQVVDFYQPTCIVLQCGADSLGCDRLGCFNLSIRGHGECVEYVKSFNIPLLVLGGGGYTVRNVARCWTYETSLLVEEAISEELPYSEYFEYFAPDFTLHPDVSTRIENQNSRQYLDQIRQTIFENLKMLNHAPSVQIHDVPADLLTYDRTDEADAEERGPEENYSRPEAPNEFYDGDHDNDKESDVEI
Sequence of HDAC-3 (Q9Y618 395-489 partner limits assumed): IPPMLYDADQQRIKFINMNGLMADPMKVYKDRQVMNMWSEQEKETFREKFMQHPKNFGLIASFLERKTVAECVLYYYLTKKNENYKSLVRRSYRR
T6 sequence (P08254 100-272 limits assumed): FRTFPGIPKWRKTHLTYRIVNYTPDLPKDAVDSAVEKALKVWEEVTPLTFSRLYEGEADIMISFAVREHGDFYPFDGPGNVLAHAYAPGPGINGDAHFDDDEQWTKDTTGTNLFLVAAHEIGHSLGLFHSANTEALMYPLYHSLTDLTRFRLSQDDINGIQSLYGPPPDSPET
Sequence of ColQ1-FL (B9J3S4 94-965 limits assumed): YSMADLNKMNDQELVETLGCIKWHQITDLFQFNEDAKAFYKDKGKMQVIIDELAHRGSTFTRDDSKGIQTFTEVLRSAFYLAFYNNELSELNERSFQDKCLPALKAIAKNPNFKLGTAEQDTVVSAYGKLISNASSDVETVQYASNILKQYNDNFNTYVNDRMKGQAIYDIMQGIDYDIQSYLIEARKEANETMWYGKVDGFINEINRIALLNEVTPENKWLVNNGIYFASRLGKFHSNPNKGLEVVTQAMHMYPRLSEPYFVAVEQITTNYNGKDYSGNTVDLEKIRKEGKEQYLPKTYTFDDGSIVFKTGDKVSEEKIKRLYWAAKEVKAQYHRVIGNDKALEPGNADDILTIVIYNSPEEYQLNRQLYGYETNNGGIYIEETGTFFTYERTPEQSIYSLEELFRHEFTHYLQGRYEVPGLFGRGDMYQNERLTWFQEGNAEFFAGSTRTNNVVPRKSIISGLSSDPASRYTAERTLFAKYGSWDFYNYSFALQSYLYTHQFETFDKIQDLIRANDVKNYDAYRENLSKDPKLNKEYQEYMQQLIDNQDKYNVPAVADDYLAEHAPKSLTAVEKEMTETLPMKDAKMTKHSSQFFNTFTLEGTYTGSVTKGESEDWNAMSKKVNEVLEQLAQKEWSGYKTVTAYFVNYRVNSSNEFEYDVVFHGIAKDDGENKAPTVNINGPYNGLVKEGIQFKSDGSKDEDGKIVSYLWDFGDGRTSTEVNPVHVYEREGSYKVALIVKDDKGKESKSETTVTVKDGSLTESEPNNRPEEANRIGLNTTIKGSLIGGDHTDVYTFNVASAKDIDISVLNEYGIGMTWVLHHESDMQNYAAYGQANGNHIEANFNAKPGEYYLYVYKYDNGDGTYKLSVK
Sequence of TACE (ADAM-17) (P78536 215-824): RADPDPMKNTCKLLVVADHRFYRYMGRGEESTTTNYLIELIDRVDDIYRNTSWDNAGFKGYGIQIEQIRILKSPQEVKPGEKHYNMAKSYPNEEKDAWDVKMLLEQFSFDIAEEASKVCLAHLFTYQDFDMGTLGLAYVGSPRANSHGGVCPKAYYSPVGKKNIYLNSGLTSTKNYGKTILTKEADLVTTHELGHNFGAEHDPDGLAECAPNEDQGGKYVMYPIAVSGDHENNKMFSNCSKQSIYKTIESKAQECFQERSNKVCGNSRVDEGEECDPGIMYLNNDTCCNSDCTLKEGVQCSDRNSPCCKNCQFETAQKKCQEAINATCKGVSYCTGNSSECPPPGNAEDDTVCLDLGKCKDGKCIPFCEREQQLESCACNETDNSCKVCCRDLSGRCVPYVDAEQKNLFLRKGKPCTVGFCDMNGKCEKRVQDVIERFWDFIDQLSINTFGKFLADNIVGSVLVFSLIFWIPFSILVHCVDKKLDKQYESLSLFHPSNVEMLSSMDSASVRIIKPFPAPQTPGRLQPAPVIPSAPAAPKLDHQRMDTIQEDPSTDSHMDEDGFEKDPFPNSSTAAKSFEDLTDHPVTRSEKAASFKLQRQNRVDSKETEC

O=P(O)(O)c1nc2ccc(-c3ccc(Cl)cc3)cc2nc1P(=O)(O)O [Compound 15, (6-(4-Chlorophenyl)quinoxaline-2,3-diyl)bis(phosphonic acid)]
IC50 [1]: > 100 µM | TEER of infected MDCK II cells [2]: preserve the TEER value | IC50 [3]: > 100 µM | Inhibitory effect on gelatinolytic activity of secreted collagenases [4]: clear dose-dependent inhibitory effect on gelatin turnover | IC50 [5]: > 100 µM | Reversibility of inhibition, ColG [6]: rapidly reversible inhibitors | IC50 [7]: > 100 µM | inhibition at 100 µM [8]: 86 ± 8% | IC50 [9]: > 100 µM | Effect on survival of infected larvae ([10]; 25 μM): reduced effect | Increase in survival of infected larvae ([10]; 100 μM): about 35% | Survival of infected larvae vs control without inhibitor ([10]; 37 °C, 3 days): ameliorated the survival of the larvae in a dose-dependent manner | Reversibility of inhibition, ColH [11]: reversed compared to ColA | inhibition at 100 µM [12]: 70 ± 8% | IC50 [13]: > 200 µM | Concentration showing dose-dependent effects on NHDF morphology, fibrillar ECM collagen content and LDH release [14]: ≥ 100 μM | Reversibility of inhibition, ColA-CU [15]: progress curve typical for slowly dissociating inhibitors | IC50 [16]: > 200 µM | IC50 [17]: > 100 µM | IC50 [18]: > 100 µM | Protection of Col I chains from cleavage by ColQ1-FL ([19]; 12.5–1.5 μM tested): inhibited the collagenase activity at all concentrations tested | IC50 [20]: > 100 µM | MIC50 [21]: 100 µM (≈ 40.1 µg/mL) | IC50 [22]: > 100 µM | inhibition at 100 µM [23]: 97 ± 5% | IC50 [24]: 10.5 µM | Residual activity after rapid dilution ([25]; 30 min preincubation at 10-fold IC50, 100-fold dilution): less than 9% | Reversibility of inhibition, ColQ1-CU [25]: irreversible or very slowly dissociating inhibitors

CC(=O)c1ccc(N2C(=O)CC(S)C2=O)cc1 (stereo not drawn) [Compound 5]
% of inhibition at 100 μM (ColH) [26]: 96%

CC(=O)Nc1ccccc1OCc1cn(CCNC(=O)C(CC(C)C)C(=O)NO)nn1 (stereo not drawn) [Compound 27, N-[2-[4-[(2-Acetamidophenoxy)methyl]triazol-1-yl]ethyl]-2-(hydroxycarbamoyl)-4-methyl-pentanamide]
IC50 [1]: > 100 µM | IC50 [3]: > 100 µM | Inhibitory effect on gelatinolytic activity of secreted collagenases [4]: no inhibitory effect on the collagenase in the zymography at all tested concentrations; also recorded: no inhibition of the collagenase in the gelatin zymography was detected | IC50 [5]: > 100 µM | IC50 [7]: > 100 µM | Ki [8]: 3.4 ± 4 µM | inhibition at 100 µM [8]: 93 ± 2% | Reversibility of inhibition, ColH [11]: rapidly reversible inhibitors | Ki [12]: 31 ± 1 µM | inhibition at 100 µM [12]: 71 ± 7% | IC50 [13]: > 200 µM | Effect on cell morphology and ECM collagen content of infected NHDF cells [14]: neither able to rescue cell morphology nor able to maintain the collagen content of the ECM | Reversibility of inhibition, ColA-CU [15]: rapidly reversible inhibitors | IC50 [16]: > 200 µM | IC50 [17]: > 100 µM | IC50 [18]: > 100 µM | Stability under NHDF infection assay conditions [27]: no compound degradation; also recorded: confirmed, however, the stability | Concentration above which Col I chains were maintained ([19]; 1 mg/mL Col I, 50 ng ColQ1-FL): > 0.8 µM | IC50 [20]: > 100 µM | MIC50 [21]: 200 µM (≈ 86.5 µg/mL) | IC50 [22]: > 100 µM | Ki [23]: 11.6 ± 0.4 µM | inhibition at 100 µM [23]: 84 ± 2% | IC50 [24]: 1.2 ± 0.1 µM | Ki [24]: 0.1 ± 0.02 µM | inhibition at 100 µM ([24]; read-out: % Inhibition (ColQ1-CU) Mean): 97 ± 2% | Reversibility of inhibition, ColQ1-CU [25]: rapidly reversible inhibitors

CC(NC(=O)C(Cc1ccccc1)NC(=O)NS(=O)(=O)c1ccc(F)cc1)C(=O)Nc1nnc(S)s1 (stereo not drawn) [Compound 3]
Ki [28]: 0.1 µM
